Converted amounts (≈) assume the structure as drawn. Read-outs that look alike come from different tables or passages of the source.
Assays:
[1] = test system: sea water marine organisms; experiment: Effectiveness as sea water marine anti-foulant; type: in vivo; conditions: result in words
Source text: The results in anti-fouling paints when utilizing the 3-isothiazolones of the patents noted above, are not predictable from their effectiveness as general biocides, whether against fresh water algae, bacteria, fungi, insects, etc.
Of the compounds appearing hereinafter in the examples, a number are common to Table 1 appearing in columns 9-12 of the U.S. Pat. No. 3,573,488 patent. Among the compounds common to the latter patent and the present specification are the compounds identified in the patent as example numbers 3, 5-8, 13, 23, 24, 33, 36, 37, the n-octyl isomer of examples 38, 40, 75, 76, 79, 84, and 93-96.
In example B of the U.S. Pat. No. 3,573,448 patent (appearing in columns 22-24) involving the control of algae, bacteria, fungi, and slime in fresh water cooling towers, not one of the compounds, or in some cases its homologue or analog, was effective as a salt water marine anti-foulant. […]
In the following examples, two systems of testing the compounds and evaluating the same are utilized. One involves the utilization of a confined amount of the materials to be evaluated in a cylindrical container having an open end covered by a membrane permeable to a limited extent by the sea water and by the compound in the container. The other method involves making up an anti-fouling paint and testing the same. In a four month period, meaningful results are obtained, and for a full scale test, a six month period, bracketing the summer months, is preferred. The evaluations involving (1) field tests, (2) laboratory tests, and (3) paint panel tests, are as follows: […]

barnacle = experiment: Membrane Diffusion Raft Trials, barnacle control; type: in vivo, barnacles; conditions: membrane test, average 15 to 16 weeks of immersion
Procedure, shortened: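 Test compound held in a plastic container sealed by a porous membrane, diffusing into surrounding seawater on raft panels alongside standard poisons and a non-toxic control membrane. Settlement timed and quantified by regular inspection; scored 0 (none), + (some) or ++ (effective), averaging 15 to 16 weeks' immersion.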

[2] = Amount of toxicant remaining in the test container after membrane diffusion raft tests; type: physicochemical; set-up: key: 0: empty or trace; +: some; + +: ample; conditions: after completion of membrane diffusion raft tests
Procedure, shortened: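 Known amount of compound held in a cylindrical container sealed with a membrane of known porosity, fixed to a raft panel so toxicant diffuses into the surrounding water. Each panel carries 35 test compounds, 4 standard poisons and 1 non-toxic membrane control. After the trial, container contents inspected visually for remaining toxicant (0 = empty or trace).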

weed [3] = experiment: Membrane Diffusion Raft Trials, weed control; type: in vivo, grass-like algal growth common in sea water; conditions: membrane test, average 15 to 16 weeks of immersion
Procedure, shortened: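 Field raft test in sea water: known quantity of compound in container sealed with membrane of known porosity, diffusing into surrounding water; panels at waterline (illuminated, aerated) and flats (poorly lit, deeper). Fouling settlement inspected over about 15-16 weeks average immersion; scored 0 none, + some, ++ effective.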

[4] = Water solubility by UV spectrophotometric method; type: physicochemical; conditions: water
Procedure, shortened: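 Molar absorptivity determined from UV absorbance of a known-concentration aqueous solution at λmax (10 cm cell). Saturated solution prepared by stirring excess compound in deionized water ~72 hrs, filtered, diluted to mid-scale absorbance; solubility calculated from absorbance using that absorptivity.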

weed [5] = experiment: Paint panel / plaque tests against weed (Table 2); type: in vivo, grass-like algal growth common in sea water; set-up: key: high performance; medium performance; low performance; poor or unacceptable performance; conditions: April to November, 1975
Source text: (3) PAINT FORMULATION AND TEST PANEL OR PLAQUE TESTS
In order to evaluate the compound under practical conditions, weighed quantities of promising compounds are ground in standard volumes of a selected range of paint media and brushed out on plaques for marine immersion.
The anti-fouling paint formulations used is exemplified by the following: […]
The most preferred specific compounds were utilized in paints including vinyl chloride-vinyl acetate copolymers, chlorinated rubber, acrylic emulsions, and conventional paints with or without rosin to contain 20% by weight of biocide in the wet film and in some cases (Example 144 and Example 145) with concentrations of 5, 10, and 15% based on the wet film. Each of the compounds is also described in the membrane tests noted above. The paints were applied at normal thicknesses to plaques or panels of 10 centimeters by 10 centimeters which were immersed in various positions as described for the raft noted above. The compounds and results, as against weed, in the season April to November, 1975, are as follows: […]

Enteromorpha spores = experiment: Laboratory toxicity test (Lab Bioassay) with Enteromorpha spores; type: in vivo; conditions: using Enteromorpha spores
Source text: Standard laboratory toxicity tests use Enteromorpha spores (zoospores or gametes) but Ectocarpus spores and barnacle nauplii may also be used. During the spore tests additional information on the control of bacterial and diatom slimes becomes available since these organisms are unavoidably introduced with the spore inoculum.
More detailed laboratory toxicity tests on promising compounds determine LD50 values as percentage saturated solution.
^c Using Enteromorpha spores.

[6] = saturated solution, Table 1, read-out: Solubility by UV method

Row | Structure (SMILES) | effectiveness as anti-foulant in sea water marine environments [1] | Barnacle Control (barnacle) | Contents at the end of test (amount of toxicants remaining in the test container) [2] | Weed Control (weed [3]) | solubility [4, 6] | Lab Bioassay LD50 (Enteromorpha spores) | also measured
1 | CCCCn1sccc1=O [Example 1, 2-n-butyl-3-isothiazolone] | ineffective as anti-foulants | 0 | 0 | 0 | – | – | –
2 | CC(C)(C)CC(C)(C)n1sccc1=O [Example 4, 2-t-octyl-3-isothiazolone] | not active for controlling sea water marine organisms | 0 | 0 | 0 | 410 µg/mL (≈ 1920 µM) | – | –
3 | O=c1cc(Cl)sn1Cc1ccccc1 [5-chloro-2-benzyl-3-isothiazolone] | effective in both environments | – | – | – | – | – | –
4 | CCCCCCCCn1scc(Cl)c1=O [Example 43] | – | 0 | + | + + | 60 µg/mL (≈ 242 µM) | 0.0003 percentage saturated solution | Effectiveness in paint V (polyvinyl chloride-acetate) (weed [5]): h; Effectiveness in paint V/R (vinyl/rosin) (weed [5]): h
5 | CCCCCCCCCCn1sccc1=O [2-n-decyl-3-isothiazolone, reference compound] | ineffective as anti-foulants | – | – | – | – | – | –
6 | Cn1scc(Cl)c1=O [4-chloro-2-methyl-3-isothiazolone, reference compound] | not active for controlling sea water marine organisms | – | – | – | – | – | –
7 | CCCCCCn1sccc1=O [Example 2, 2-n-hexyl-3-isothiazolone] | not active for controlling sea water marine organisms | 0 | 0 | 0 | 5100 µg/mL (≈ 27500 µM) | – | effectiveness as anti-foulant in sea water marine environments ([1]; listed as hexyl homologue of 2-n-butyl-3-isothiazolone): ineffective as anti-foulants
8 | O=c1ccsn1Cc1ccccc1 [2-benzyl-3-isothiazolone, reference compound] | not active for controlling sea water marine organisms | – | – | – | – | – | effectiveness as anti-foulant in sea water marine environments ([1]; listed as benzyl analogue of 2-n-butyl-3-isothiazolone): ineffective as anti-foulants
9 | Cn1sc(Cl)cc1=O [5-chloro-2-methyl-3-isothiazolone, reference compound] | ineffective as anti-foulants | – | – | – | – | – | –
10 | CCCCCCCCCCCCn1sccc1=O [Example 5] | not active for controlling sea water marine organisms | 0 | + | 0 | – | – | –
11 | CCCCCCCCCCn1sc(Cl)c(Cl)c1=O [Example 63] | – | 0 | + + | + + | 1.4 µg/mL (≈ 4.51 µM) | 0.03 percentage saturated solution | Effectiveness in paint CONV (conventional anti-fouling formulation) (weed [5]): l; Effectiveness in paint CR (chlorinated rubber) (weed [5]): p; Effectiveness in paint CR/R (chlorinated rubber/rosin) (weed [5]): p; Effectiveness in paint EM (acrylic emulsion) (weed [5]): m; Effectiveness in paint V (polyvinyl chloride-acetate) (weed [5]): m; Effectiveness in paint V/R (vinyl/rosin) (weed [5]): m
12 | O=c1c(Br)csn1C1CCCCC1 [Example 51] | – | + | + | + + | 143 µg/mL (≈ 545 µM) | 0.01 percentage saturated solution | –
13 | Cc1c(Cl)sn(-c2ccc(Cl)cc2)c1=O [Example 114] | – | + + | + + | + + | 14 µg/mL (≈ 53.8 µM) | 0.008 percentage saturated solution | –
14 | O=c1c(Cl)c(Cl)sn1-c1ccccc1 [Example 74] | – | + + | + + | + + | 8 µg/mL (≈ 32.5 µM) | 0.03 percentage saturated solution | –
15 | O=c1cc(Cl)sn1-c1ccc(Cl)cc1 [Example 34] | – | + + | + + | + + | 41 µg/mL (≈ 167 µM) | 0.025 percentage saturated solution | –
16 | O=c1c(Cl)c(Cl)sn1C1CCCCC1 [Example 67] | – | + + | + | + + | – | 0.3 percentage saturated solution | solubility [4]: 48 µg/mL (≈ 190 µM)
17 | CC(C)(C)CC(C)(C)n1sc(Cl)c(Cl)c1=O [Example 59] | – | + | + + | + + | 38 µg/mL (≈ 135 µM) | 0.006 percentage saturated solution | –
18 | O=c1c(Cl)c(Cl)sn1CCc1ccccc1 [Example 69] | – | 0 | + + | + + | 22 µg/mL (≈ 80.2 µM) | 0.01 percentage saturated solution | –
19 | O=c1c(Br)c(Br)sn1C1CCCCC1 [Example 98] | – | 0 | + | + + | 6.4 µg/mL (≈ 18.8 µM) | 0.02 percentage saturated solution | –
20 | Cc1c(Cl)sn(CCc2ccccc2)c1=O [Example 108] | – | + + | + | 0 | 155 µg/mL (≈ 611 µM) | > 1 percentage saturated solution | –

Reference: patent US4127687A, “Prevention of fouling of marine structures such as boat hulls” (Rohm and Haas Company, priority 1976, dated 1978)
